Experimental data as given in ChEMBL document CHEMBL1201862, “PubChem BioAssay data set” (2004).
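Exposure lasted 48 hours, with cells grown in 96-well plates and compounds tested at five concentrations. The concentration for 50% growth inhibition is given as GI50.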 Activity calls are given as the source filed them. Rule as the data show it: active = GI50 up to about 1.1 µM and inactive = higher.

Key:
Experiment in all cases: DTP human tumour cell line panel, 48 h
[1] = tested on: 786-0
[2] = tested on: A498
[3] = tested on: A549
[4] = tested on: ACHN
[5] = tested on: BT-549
[6] = tested on: CAKI-1
[7] = tested on: CCRF-CEM
[8] = tested on: COLO 205
[9] = tested on: DU-145
[10] = tested on: EKVX
[11] = tested on: HCC 2998
[12] = tested on: HCT-116
[13] = tested on: HCT-15
[14] = tested on: HL-60
[15] = tested on: HOP-92
[16] = tested on: HT-29
[17] = tested on: Hs-578T
[18] = tested on: IGROV-1
[19] = tested on: K562
[20] = tested on: KM12
[21] = tested on: LOX IMVI
[22] = tested on: M14
[23] = tested on: MCF7
[24] = tested on: MDA-MB-231
[25] = tested on: MDA-MB-435
[26] = tested on: MDA-N
[27] = tested on: MOLT-4
[28] = tested on: Malme-3M
[29] = tested on: NCI-H226
[30] = tested on: NCI-H23
[31] = tested on: NCI-H460
[32] = tested on: NCI-H522
[33] = tested on: NCI/ADR-RES
[34] = tested on: OVCAR-3
[35] = tested on: OVCAR-4
[36] = tested on: OVCAR-5
[37] = tested on: OVCAR-8
[38] = tested on: PC-3
[39] = tested on: RPMI-8226
[40] = tested on: SF-268
[41] = tested on: SF-295
[42] = tested on: SF-539
[43] = tested on: SK-MEL-28
[44] = tested on: SK-MEL-2
[45] = tested on: SK-MEL-5
[46] = tested on: SK-OV-3
[47] = tested on: SN12C
[48] = tested on: SNB-19
[49] = tested on: SNB-75
[50] = tested on: SW-620
[51] = tested on: T47D
[52] = tested on: TK-10
[53] = tested on: U-251
[54] = tested on: UACC-257
[55] = tested on: UACC-62
[56] = tested on: UO-31
[57] = tested on: HOP-62
[58] = tested on: RXF 393
[59] = tested on: SR

Measured: GI50

CC(=O)O[C@@H]1[C@H]2O[C@H]2[C@H]2O[C@@]2(COC(=O)c2ccccc2)[C@H]1OC(C)=O
> 100 µM: [13]
inactive: [1] > 100 µM | [2] > 100 µM | [3] > 100 µM | [4] 16.9 µM | [5] > 100 µM | [6] 99.1 µM | [7] > 100 µM | [8] > 100 µM | [9] 73.5 µM | [10] > 100 µM | [11] > 100 µM | [12] > 100 µM | [14] > 100 µM | [15] > 100 µM | [16] > 100 µM | [17] > 100 µM | [18] 35.8 µM | [19] > 100 µM | [20] > 100 µM | [21] > 100 µM | [22] > 100 µM | [23] > 100 µM | [24] > 100 µM | [25] > 100 µM | [26] > 100 µM | [27] 32.1 µM | [28] > 100 µM | [29] > 100 µM | [30] > 100 µM | [31] 34.2 µM | [32] > 100 µM | [33] > 100 µM | [34] > 100 µM | [35] > 100 µM | [36] > 100 µM | [37] 71.9 µM | [38] > 100 µM | [39] > 100 µM | [40] > 100 µM | [41] > 100 µM | [42] > 100 µM | [43] > 100 µM | [44] > 100 µM | [45] > 100 µM | [46] > 100 µM | [47] > 100 µM | [48] > 100 µM | [49] > 100 µM | [50] > 100 µM | [51] > 100 µM | [52] > 100 µM | [53] > 100 µM | [54] > 100 µM | [55] > 100 µM | [56] > 100 µM

O=S(=O)(O)c1ccc2c(/N=N/c3ccc(/N=N/c4ccccc4)cc3)c(O)c(S(=O)(=O)O)cc2c1
inactive: [1] > 100 µM | [3] > 100 µM | [4] > 100 µM | [5] > 100 µM | [6] > 100 µM | [7] > 100 µM | [8] > 100 µM | [9] > 100 µM | [10] > 100 µM | [11] > 100 µM | [12] 50.1 µM | [14] > 100 µM | [57] > 100 µM | [15] > 100 µM | [16] > 100 µM | [17] > 100 µM | [18] > 100 µM | [19] > 100 µM | [20] > 100 µM | [22] > 100 µM | [23] > 100 µM | [24] > 100 µM | [25] > 100 µM | [26] > 100 µM | [27] > 100 µM | [28] > 100 µM | [29] > 100 µM | [30] > 100 µM | [31] > 100 µM | [32] > 100 µM | [33] > 100 µM | [34] > 100 µM | [35] > 100 µM | [36] > 100 µM | [37] > 100 µM | [38] > 100 µM | [39] > 100 µM | [58] > 100 µM | [40] > 100 µM | [41] > 100 µM | [42] > 100 µM | [43] > 100 µM | [44] > 100 µM | [45] > 100 µM | [46] > 100 µM | [47] > 100 µM | [48] > 100 µM | [59] > 100 µM | [50] > 100 µM | [51] > 100 µM | [52] > 100 µM | [53] > 100 µM | [54] > 100 µM | [55] > 100 µM | [56] > 100 µM
> 100 µM: [13]
